Measurements as given in patent publication EP1095663B1, “Potentiated and stabilised disinfectant having bactericidal and virucidal activity” (Sogeval S.A., priority 1999, dated 2001).
Read-outs that look alike come from different tables or passages of the source.

What was measured:
[1] = test system: virus de la maladie de Talfan; experiment: Virucidal activity of mixtures, drop of viral titre, Example 1; type: cell-based; conditions: 30 min, 20°C, eau dure à 30°f + matières organiques
Method: Pour déterminer l'activité virucide de l'association susmentionnée, on a préparé différents mélanges monoperoxyphtalate de magnésium/cumène sulfonate de sodium/acide malique et on a analysé l'efficacité de ces différents mélanges sur le virus de la maladie de Talfan, ce en appliquant les conditions expérimentales qui correspondent aux exigences en matière d'homologation d'un désinfectant à usage agricole [temps de contact 30 min. - température 20°C - conditions de saleté : eau dure à 30°f + matières organiques (albumine 1 % + extrait de levure 1 %)].

[2] = test de AMES; cited from earlier work
lapin = conditions: Toxicité aiguë par voie dermique; cited from earlier work
truite arc en ciel = conditions: cited from earlier work
[3] = test system: Escherichia coli (CIP 53 154); conditions: temps de contact 5 min, 20°C, conditions de saleté
Method: (§1) Conformément à l'invention, on a vérifié l'activité bactéricide du monoperoxyphtalate de magnésium vis-à-vis de souches bactériennes fréquentes dans les élevages, à savoir les souches suivantes : Pseudomonas aeruginosa, Escherichia coli, Staphylococcus aureus et Enteroccocus hirae, ce en appliquant les conditions expérimentales qui répondent aux exigences d'homologation d'un désinfectant à usage agricole qui sont définies par la norme NF-T 72-301 (temps de contact 5 min. température 20°C, conditions de saleté : eau dure à 30°f, matière organique = albumine 1 % + extraits de levures 1 %).
(§2) Il est à noter que conformément aux exigences en matière d'homologation (norme NF-T 72-171) une substance est considérée comme active à une concentration d'emploi donnée lorsqu'elle permet de réduire le titre bactérien d'au moins 10^5, soit 5 Log.

[4] = test system: Staphylococcus aureus (CIP 53 154); conditions: temps de contact 5 min, 20°C
Method: as §1, §2

[5] = test system: Enterococcus hirae (CIP 58 55); conditions: temps de contact 5 min, 20°C
Method: as §1, §2

[6] = test system: Pseudomonas aeruginosa (CIP A22); conditions: temps de contact 5 min, 20°C, conditions de saleté
Method: as §1, §2

[7] = test system: Pseudomonas aeruginosa, Escherichia coli, Staphylococcus aureus et Enteroccocus hirae; experiment: Bactericidal activity on all four tested strains (summary); type: cell-based; conditions: conditions requises (NF-T 72-301)
Method: as §1, §2

rats de laboratoire = conditions: Toxicité moyenne; cited from earlier work
[8] = test system: virus de la maladie de Talfan
Description: Selon les normes en vigueur, une substance est considérée comme virucide lorsqu'elle permet de réduire le titre viral d'au moins 10^3, c'est-à-dire de 3 Log.
Ce test a été effectué sur le virus de la maladie de Talfan (enterovirus non enveloppé, à ARN).

[9] = test system: Pseudomonas aeruginosa (CIP A 22)
Method: (§3) On a analysé l'activité bactéricide des produits testés sur les deux souches bactériennes Pseudomonas aeruginosa (CIP A 22) et Enteroccocus hirae (CIP 58 55).
(§4) On a ainsi déterminé les concentrations minimales bactéricides (CMB), d'une part, de monoperoxyphtalate de magnésium (MMPP) et de mélange Ml seul et, d'autre part, de leur association, ce dans des solutions d'eau distillée, d'eau dure à 30°f et dans les conditions de saleté prévues par les normes correspondant aux exigences en matière d'homologation d'un désinfectant à usage agricole (matières organiques : albumine 1 % + extrait de levures 1 %).

[10] = test system: Enteroccocus hirae (CIP 58 55)
Method: as §3, §4

rat [11] = conditions: Toxicité aiguë par inhalation; cited from earlier work
rat [12] = conditions: Toxicité aiguë par voie orale; cited from earlier work
[13] = 20°C; cited from earlier work
[14] = conditions de saleté (eau dure à 30°f, albumine 1 % + extraits de levures 1 %)

CC(C)c1ccc(S(=O)(=O)[O-])cc1.[Na+] [Cumène sulfonate de sodium, cumène sulfonate de sodium]
Chute du titre viral (exprimé en Log) ([1]; Cumène sulfonate de sodium 1500 ppm): 0 Log

O=C(O)c1ccccc1C(=O)OO [monoperoxyphtalate de magnésium]
Propriétés Mutagenes [2]: Non mutagène selon le test de AMES (norme n° ...) | LD50 (voie dermique, lapin) (lapin): 2000 mg/kg de poids vif | LC50 (7 jours, truite arc en ciel) (truite arc en ciel): 38,5 mg :l | Equivalence Avox [3]: ≥ 150 ppm | Equivalence Avox ([4]; conditions de saleté): ≥ 450 ppm | Concentration active en monoperoxyphtalate de magnésium (réduction > 10^5 Log) [4, 14]: ≥ 7 500 ppm | Equivalence Avox ([5]; conditions de saleté): ≥ 300 ppm | Concentration active en monoperoxyphtalate de magnésium (réduction > 10^5 Log) [5, 14]: ≥ 5 000 ppm | Equivalence Avox [6]: ≥ 300 ppm | concentration efficace sur les souches testées [7]: 7 500 ppm | concentration efficace sur les souches testées, en oxygène libre ([7]; oxygène libre): 450 ppm | Effets toxiques (alimentation de rats de laboratoire pendant 90 jours) (rats de laboratoire): > 620 mg/kg de poids vif | concentration à partir de laquelle activité virucide [8]: ≥ 1 500 ppm | concentrations minimales bactéricides (CMB) ([9]; Eau distillée): 800 ppm | concentrations minimales bactéricides (CMB) ([9]; Eau dure 30°F): 800 ppm | concentrations minimales bactéricides (CMB) ([10]; Eau distillée): 800 ppm | concentrations minimales bactéricides (CMB) ([10]; Eau dure 30°F): 800 ppm | LD50 (voie nasale, rat) (rat [11]): 0,84 mg/l | Chute du titre viral (exprimé en Log) ([1]; MMPP 1000 ppm): 2,6 Log | Chute du titre viral (exprimé en Log) ([1]; MMPP 1500 ppm): 3,7 Log | LD50 (voie orale, rat) (rat [12]): 2300 MG/kg de poids vif | soluble en milieu aqueux [13]: 80 g/L

O=C(O)CC(O)C(=O)O (stereo not drawn) [Ac. Malique, acide malique]
Chute du titre viral (exprimé en Log) ([1]; Ac. Malique 3000 ppm): 0,33 Log
